One data set can be described thus: in vitro. As to conditions: human, TOX HELA CC50 (μM).
A further data set relates to rgRSV224 virus. As to the kind of experiment: Antiviral activity: rgRSV224 (GFP) replication in HeLa cells. As to conditions: human respiratory syncytial virus, HeLa, 72 h, read-out: RSV HELA EC50 (μM), rgRSV224 virus (MOI=1), HeLa cells, GFP expression three days post-virus exposure. The class given is cell-based, respiratory syncytial virus (RSV).

The structures appear in SMILES notation.

Procedure for in vitro: Black 384-well clear-bottom microtiter plates (Corning, Amsterdam, The Netherlands) were filled via acoustic drop ejection using the echo liquid handler (Labcyte, Sunnyvale, Calif.). 200 nL of compound stock solutions (100% DMSO) were transferred to the assay plates. 9 serial 4-fold dilutions of compound were made, creating per quadrant the same compound concentration. The assay was initiated by adding 10 μL of culture medium to each well (RPMI medium without phenol red, 10% FBS-heat inactivated, 0.04% gentamycin (50 mg/mL). All addition steps are done by using a multidrop dispenser (Thermo Scientific, Erembodegem, Belgium). Next, rgRSV224 virus (MOI=1) diluted in culture medium was added to the plates. rgRSV224 virus is an engineered virus that includes an additional GFP gene (Hallak L K, Spillmann D, Collins P L, Peeples M E. Glycosaminoglycan sulfation requirements for respiratory syncytial virus infection; Journal of virology (2000), 74(22), 10508-13) and was in-licensed from the NIH (Bethesda, Md., USA). Finally, 20 μL of a HeLa cell suspension (3,000 cells/well) were plated. Medium, virus- and mock-infected controls were included in each test. The wells contain 0.05% DMSO per volume. Cells were incubated at 37° C. in a 5% CO2 atmosphere. Three days post-virus exposure, viral replication was quantified by measuring GFP expression in the cells by an in house developed MSM laser microscope (Tibotec, Beerse, Belgium). The EC50 was defined as the 50% inhibitory concentration for GFP expression. In parallel, compounds were incubated for three days in a set of white 384-well microtiter plates (Corning) and the cytotoxicity of compounds in HeLa cells was determined by measuring the ATP content of the cells using the ATPlite kit (Perkin Elmer, Zaventem, Belgium) according to the manufacturer's instructions. The CC50 was defined as the 50% concentration for cytotoxicity.

For the compound `C[C@@H]1c2ccccc2CCN1C(=O)c1cc(C2CC2)n2nc(-c3ccc(N4C[C@H](C(N)=O)C[C@@H]4C)cc3F)cc2n1` (single isomer, unassigned) [Compound 33, (3*R,5*S)-1-(4-{7-cyclopropyl-5-[(1R)-1-methyl-1,2,3,4-tetrahydroisoquinoline-2-carbonyl]pyrazolo[1,5-a]pyrimidin-2-yl}-3-fluorophenyl)-5-methylpyrrolidine-3-carboxamide], the melting point is 292.7 °C. In the data set “in vitro”, this compound displayed a CC50 at 3 days of 34.5 µM. Also, the EC50 with rgRSV224 virus is 0.043 µM.

`C[C@@H]1c2ccsc2CCN1C(=O)c1cc(C2CC2)n2nc(-c3ccc(N4CC[C@H](CC(N)=O)C4)cc3F)cc2n1` (single isomer, unassigned) [Compound 42, 2-[(3R)-1-(4-{7-Cyclopropyl-5-[(4*R)-4-methyl-4,5,6,7-tetrahydro-thieno[3,2-c]pyridine-5-carbonyl]pyrazolo[1,5-a]pyrimidin-2-yl}-3-fluorophenyl)pyrrolidin-3-yl]acetamide] yielded a melting point of 206.84 °C. Besides, the 50% cytotoxic concentration (CC50) at 3 days in “in vitro” is 28.9 µM. Also, in the data set with rgRSV224 virus, the EC50 came out at 0.025 µM.

`C[C@@H]1c2ccsc2CCN1C(=O)c1cc(C2CC2)n2nc(-c3ccc(N4CC[C@@H](CC(N)=O)C4)cc3F)cc2n1` (single isomer, unassigned) [Compound 43, 2-[(3S)-1-(4-{7-Cyclopropyl-5-[(4*R)-4-methyl-4,5,6,7-tetrahydro-thieno[3,2-c]pyridine-5-carbonyl]pyrazolo[1,5-a]pyrimidin-2-yl}-3-fluorophenyl)pyrrolidin-3-yl]acetamide] showed a melting point of 214.36 °C. This compound registered a CC50 at 3 days in “in vitro” of 29.8 µM. Further, in the data set with rgRSV224 virus, the EC50 is 0.017 µM.

Compound `C[C@@H]1c2ccsc2CCN1C(=O)c1cc(C2CC2)n2nc(-c3ccc(N4CC[C@H](C(N)=O)C4)cc3F)cc2n1` (single isomer, unassigned) [Compound 46, (3S)-1-(4-{7-Cyclopropyl-5-[(4*R)-4-methyl-4,5,6,7-tetrahydro-thieno[3,2-c]pyridine-5-carbonyl]pyrazolo[1,5-a]pyrimidin-2-yl}-3-fluorophenyl)pyrrolidine-3-carboxamide] yielded a melting point of 270 °C. The same compound returned a CC50 at 3 days in the data set “in vitro” of 31.3 µM. The EC50 in the data set on rgRSV224 virus was determined as 0.007 µM.

Compound `C[C@@H]1c2cc(F)ccc2CCN1C(=O)c1cc(C2CC2)n2nc(-c3ccc(N4CC[C@H](C(N)=O)C4)cc3F)cc2n1` (single isomer, unassigned) [Compound 47, (3S)-1-(4-{7-Cyclopropyl-5-[(1*R)-7-fluoro-1-methyl-1,2,3,4-tetrahydroisoquinoline-2-carbonyl]pyrazolo[1,5-a]pyrimidin-2-yl}-3-fluorophenyl)pyrrolidine-3-carboxamide] registered a melting point of 245.69 °C. In addition, in the data set “in vitro”, the CC50 at 3 days amounted to 41.5 µM. The concentration giving a half-maximal response (EC50) with rgRSV224 virus amounted to 0.009 µM.

On to `C[C@@H]1c2ccccc2CCN1C(=O)c1cc(C2CC2)n2nc(-c3ccc(N4CC[C@@H](C(N)=O)[C@H]4C)cc3F)cc2n1` (single isomer, unassigned) [Compound 80, (2*R,3*R)-1-(4-{7-Cyclopropyl-5-[(1R)-1-methyl-1,2,3,4-tetrahydroisoquinoline-2-carbonyl]pyrazolo[1,5-a]pyrimidin-2-yl}-3-fluorophenyl)-2-methylpyrrolidine-3-carboxamide], for which the melting point turned out to be 182.93 °C. This compound gave a CC50 at 3 days in the data set “in vitro” of 35.9 µM. In addition, the EC50 with rgRSV224 virus was 0.091 µM.

As for `C[C@@H]1c2ccccc2CCN1C(=O)c1cc(C2CC2)n2nc(-c3ccc(N4CC[C@H](C(N)=O)[C@H]4C)cc3F)cc2n1` (single isomer, unassigned) [Compound 81, (2*R,3*S)-1-(4-{7-Cyclopropyl-5-[(1R)-1-methyl-1,2,3,4-tetrahydroisoquinoline-2-carbonyl]pyrazolo[1,5-a]pyrimidin-2-yl}-3-fluorophenyl)-2-methylpyrrolidine-3-carboxamide], the melting point was 271.19 °C. In “in vitro”, this compound registered a CC50 at 3 days of 38.4 µM. Moreover, the EC50 with rgRSV224 virus stood at 0.099 µM.

Compound `C[C@@H]1c2ccccc2CCN1C(=O)c1cc(C2CC2)n2nc(-c3ccc(N4CC[C@@H](C(N)=O)[C@@H]4C)cc3F)cc2n1` (single isomer, unassigned) [Compound 82, (2*S,3*R)-1-(4-{7-Cyclopropyl-5-[(1R)-1-methyl-1,2,3,4-tetrahydroisoquinoline-2-carbonyl]pyrazolo[1,5-a]pyrimidin-2-yl}-3-fluorophenyl)-2-methylpyrrolidine-3-carboxamide] came in with a melting point of 294.89 °C. This compound also displayed a cytotoxic concentration (CC50) at 3 days in the data set “in vitro” of 33.1 µM. Besides, in the data set on rgRSV224 virus, the EC50 was 0.033 µM.

As to `C[C@@H]1c2ccccc2CCN1C(=O)c1cc(C2CC2)n2nc(-c3ccc(N4CC[C@H](C(N)=O)[C@@H]4C)cc3F)cc2n1` (single isomer, unassigned) [Compound 83, (2*S,3*S)-1-(4-{7-Cyclopropyl-5-[(1R)-1-methyl-1,2,3,4-tetrahydroisoquinoline-2-carbonyl]pyrazolo[1,5-a]pyrimidin-2-yl}-3-fluorophenyl)-2-methylpyrrolidine-3-carboxamide], the melting point was 235.56 °C. The compound further yielded a CC50 at 3 days in “in vitro” of 42.4 µM. For the same compound, the EC50 with rgRSV224 virus was found to be 0.044 µM.

The compound `C[C@@H]1c2ccccc2CCN1C(=O)c1cc(C2CC2)n2nc(-c3ccc(N4CCC5(COC5)C4)cc3F)cc2n1` [Compound 5, (1R)-2-[7-Cyclopropyl-2-(2-fluoro-4-{2-oxa-6-azaspiro[3.4]octan-6-yl}phenyl)pyrazolo[1,5-a]pyrimidine-5-carbonyl]-1-methyl-1,2,3,4-tetrahydroisoquinoline] registered a melting point of 220.25 °C. Also, the CC50 at 3 days in “in vitro” was > 25 µM. Also, the EC50 in the data set on rgRSV224 virus came out at 0.118 µM.

`CC(=O)N[C@@H]1CCN(c2ccc(-c3cc4nc(C(=O)N5CCc6ccccc6[C@H]5C)cc(C5CC5)n4n3)c(F)c2)C1` [Compound 7, N-[(3R)-1-(4-{7-Cyclopropyl-5-[(1R)-1-methyl-1,2,3,4-tetrahydroisoquinoline-2-carbonyl]pyrazolo[1,5-a]pyrimidin-2-yl}-3-fluorophenyl)pyrrolidin-3-yl]acetamide] gave a melting point of 189 °C. The compound further displayed a CC50 at 3 days in the data set “in vitro” of 71.5 µM. For the same compound, the EC50 with rgRSV224 virus is 0.037 µM.

In turn, `C[C@@H]1c2ccccc2CCN1C(=O)c1cc(C2CC2)n2nc(-c3ccc(N4CC[C@@H](NS(C)(=O)=O)C4)cc3F)cc2n1` [Compound 11, N-[(3R)-1-(4-{7-Cyclopropyl-5-[(1R)-1-methyl-1,2,3,4-tetrahydroisoquinoline-2-carbonyl]pyrazolo[1,5-a]pyrimidin-2-yl}-3-fluorophenyl)pyrrolidin-3-yl]methane-sulfonamide] returned a melting point of 159.35 °C. The CC50 at 3 days in the data set “in vitro” is > 100 µM. Moreover, the EC50 in the data set with rgRSV224 virus worked out at 0.044 µM.

In the case of `C[C@@H]1c2ccccc2CCN1C(=O)c1cc(C2CC2)n2nc(-c3ccc(N4CC[C@@H](S(C)(=O)=O)C4)cc3F)cc2n1` [Compound 17, (1R)-2-(7-Cyclopropyl-2-{2-fluoro-4-[(3R)-3-methanesulfonylpyrrolidin-1-yl]phenyl}-pyrazolo[1,5-a]pyrimidine-5-carbonyl)-1-methyl-1,2,3,4-tetrahydroisoquinoline], the melting point worked out at 258.48 °C. Moreover, the CC50 at 3 days in “in vitro” is > 100 µM. Also, in the data set with rgRSV224 virus, the EC50 was 0.05 µM.

For the compound `C[C@@H]1c2ccccc2CCN1C(=O)c1cc(C2CC2)n2nc(-c3ccc(N4CCC(S(N)(=O)=O)C4)cc3F)cc2n1` (stereo partly drawn) [Compound 19, 1-(4-{7-Cyclopropyl-5-[(1R)-1-methyl-1,2,3,4-tetrahydroisoquinoline-2-carbonyl]-pyrazolo[1,5-a]pyrimidin-2-yl}-3-fluorophenyl)pyrrolidine-3-sulfonamide], the melting point was 308.63 °C. The compound also yielded a 50% cytotoxic concentration (CC50) at 3 days in the data set “in vitro” of 72.3 µM. Also, in the data set on rgRSV224 virus, the EC50 was found to be 0.041 µM.

For `C[C@@H]1c2ccccc2CCN1C(=O)c1cc(C2CC2)n2nc(-c3ccc(N4CC[C@H](C(N)=O)C4)cc3F)cc2n1` [Compound 36, (3S)-1-(4-{7-Cyclopropyl-5-[(1R)-1-methyl-1,2,3,4-tetrahydroisoquinoline-2-carbonyl]pyrazolo[1,5-a]pyrimidin-2-yl}-3-fluorophenyl)pyrrolidine-3-carboxamide], the melting point was 237.7 °C. This compound also showed a 50% cytotoxic concentration (CC50) at 3 days in “in vitro” of 29.3 µM. Besides, the EC50 in the data set on rgRSV224 virus is 0.012 µM.

For `C[C@@H]1c2ccccc2CCN1C(=O)c1cc(C2CC2)n2nc(-c3ccc(N4CC[C@H](C(N)=O)C4)nc3F)cc2n1` [Compound 49, (3S)-1-(5-{7-Cyclopropyl-5-[(1R)-1-methyl-1,2,3,4-tetrahydroisoquinoline-2-carbonyl]-pyrazolo[1,5-a]pyrimidin-2-yl}-6-fluoropyridin-2-yl)pyrrolidine-3-carboxamide], the melting point is 239.19 °C. Moreover, the CC50 at 3 days in the data set “in vitro” amounted to 32.3 µM. Besides, the concentration for a half-maximal effect (EC50) in the data set with rgRSV224 virus was 0.024 µM.

On to `C[C@@H]1c2ccccc2CCN1C(=O)c1cc(C2CC2)n2nc(-c3cnc(N4CC[C@H](C(N)=O)C4)cc3F)cc2n1` [Compound 52, (3S)-1-(5-{7-Cyclopropyl-5-[(1R)-1-methyl-1,2,3,4-tetrahydroisoquinoline-2-carbonyl]-pyrazolo[1,5-a]pyrimidin-2-yl}-4-fluoropyridin-2-yl)pyrrolidine-3-carboxamide], for which the melting point was determined as 246.17 °C. This compound also had a CC50 at 3 days in the data set “in vitro” of 41.3 µM. Further, in the data set on rgRSV224 virus, the EC50 came to 0.014 µM.

Take `CNC(=O)[C@H]1CCN(c2cc(F)c(-c3cc4nc(C(=O)N5CCc6ccccc6[C@H]5C)cc(C5CC5)n4n3)cn2)C1` [Compound 53, (3S)-1-(5-{7-Cyclopropyl-5-[(1R)-1-methyl-1,2,3,4-tetrahydroisoquinoline-2-carbonyl]-pyrazolo[1,5-a]pyrimidin-2-yl}-4-fluoropyridin-2-yl)-N-methylpyrrolidine-3-carboxamide]: the melting point came to 228.33 °C. Besides, in the data set “in vitro”, the CC50 at 3 days is > 100 µM. For the same compound, the EC50 in the data set on rgRSV224 virus worked out at 0.035 µM.

Values taken from patent US11339165B2, “Pyrazolopyrimidines having activity against the respiratory syncytial virus (RSV)” (priority 2017, dated 2022).
